Measured values from patent US8658661B2, “Oxadiazole inhibitors of leukotriene production” (Boehringer Ingelheim International GmbH, priority 2010, dated 2014).

Key:
[1] = test system: synthesis of LTB4 in human whole blood; experiment: Human whole blood assay (inhibition of LTB4 synthesis, calcimycin stimulated); assay type: cell-based; details: heparinized human whole blood, calcimycin 20 μM, plasma LTB4
Description: Compounds are additionally tested in a human whole blood assay to determine their ability to inhibit the synthesis of LTB4 in a cellular system. Compounds are combined with heparinized human whole blood and incubated for 15 minutes at 37° C. Calcimycin (20 μM final, prepared in phosphate-buffered saline, pH 7.4) is then added and the mixture is incubated for another 30 minutes at 37° C. The samples are centrifuged for 5 min at low speed (1500×g) and the plasma layer is removed. Plasma LTB4 concentrations are then measured using an antibody-based homogenous time-resolved fluorescence method (CisBio, Bedford, Mass.).

[2] = target: T1, recombinant human FLAP protein (Homo sapiens, UniProt P20292); experiment: FLAP binding assay (SPA, displacement of [125I]L-691,831); details: membranes of sf9 cells expressing recombinant human FLAP; [125I]L-691,831 probe; read-out: FLAP binding IC50
T1 construct: made in house; host or cells: Sf9 insect cells (100,000×g membrane pellet used)
T1 sequence (P20292 1-161): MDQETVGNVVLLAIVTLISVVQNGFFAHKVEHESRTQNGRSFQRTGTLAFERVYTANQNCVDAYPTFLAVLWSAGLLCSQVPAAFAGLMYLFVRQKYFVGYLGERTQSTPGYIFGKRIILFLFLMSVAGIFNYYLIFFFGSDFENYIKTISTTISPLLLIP
Description: Assessment of Biological Properties 1. Binding Assay
Compounds are assessed for the ability to bind to FLAP in a binding assay that measures compound-specific displacement of an iodinated (^125I) FLAP inhibitor via a Scintillation Proximity Assay format (adapted from S. Charleson et al., Mol. Pharmacol., 1992, 41, 873-879).
Cell pellets produced from sf9 insect cells expressing recombinant human FLAP protein are resuspended in buffer A [15 mM Tris-HCl (pH 7.5), 2 mM MgCl2, 0.3 mM EDTA, 1 mM PMSF]. The cells are lysed with a Dounce homogenizer and the material is centrifuged at 10,000×g for 10 minutes. The supernatant is then collected and centrifuged at 100,000×g for 60 minutes. To prepare membrane protein for an assay, an aliquot of the 100,000×g pellet is resuspended in 1 ml of buffer A, Dounce homogenized, and finally subjected to polytron mixing (30 seconds). Membrane protein (25 μl, 5 μg) is mixed with WGA SPA beads (Amersham) and stirred for 1 h. […] (final concentrations: beads, 200 μg/well; protein, 5 μg/well; [^125I] probe, 0 08 nM/well (17 nCi/well). The plates are shaken for 2 h before reading on a Microbeta plate reader. Non-specific binding is determined by the addition of 10 μM cold L-691,831 compound.

IC50 [1] [nM] | IC50 [2] [nM] | Structure (SMILES)
320 | 26 | Cn1cnc(-c2nc(C(C)(c3ccc(-c4cnc(N)nc4)cc3)C3CC3)no2)c1 (centres unmarked) [Example 28, 5-(4-{1-cyclopropyl-1-[5-(1-methyl-1H-imidazol-4-yl)-1,2,4-oxadiazol-3-yl]ethyl}phenyl)pyrimidin-2-amine]
190 | 5.3 | Cc1ccc(-c2nc(C(C)(c3ccc(-c4cnc(N)nc4)cc3)C3CC3)no2)cn1 (centres unmarked) [Example 29, 5-(4-{1-cyclopropyl-1-[5-(6-methylpyridin-3-yl)-1,2,4-oxadiazol-3-yl]ethyl}phenyl)pyrimidin-2-amine]
60 | 5 | COCCn1cc(-c2nc(C(C)(c3ccc(-c4cnc(N)nc4)cc3)C3CC3)no2)cn1 (centres unmarked) [Example 30, 5-[4-(1-cyclopropyl-1-{5-[1-(2-methoxyethyl)-1H-pyrazol-4-yl]-1,2,4-oxadiazol-3-yl}ethyl)phenyl]pyrimidin-2-amine]
200 | 1.6 | CC(C)[C@](C)(c1ccc(-c2cnc(N)nc2)cc1)c1noc(-c2ccnn2C)n1 [Example 31, 5-(4-{(2R)-3-methyl-2-[5-(1-methyl-1H-pyrazol-5-yl)-1,2,4-oxadiazol-3-yl]butan-2-yl}phenyl)pyrimidin-2-amine]
2500 | 18 | CC(C)[C@@](C)(c1ccc(-c2cnc(N)nc2)cc1)c1noc(-c2ccnn2C)n1 [Example 32, 5-(4-{(2S)-3-methyl-2-[5-(1-methyl-1H-pyrazol-5-yl)-1,2,4-oxadiazol-3-yl]butan-2-yl}phenyl)pyrimidin-2-amine]
210 | 6.6 | Cn1cc(-c2nc(C(C)(c3ccc(-c4cnc(N)nc4)cc3)C3CCC3)no2)cn1 (centres unmarked) [Example 33, 5-(4-{1-cyclobutyl-1-[5-(1-methyl-1H-pyrazol-4-yl)-1,2,4-oxadiazol-3-yl]ethyl}phenyl)pyrimidin-2-amine]
160 | 3.7 | CC(c1ccc(-c2cnc(N)nc2)cc1)(c1noc(-c2cn[nH]c2)n1)C1CCC1 (centres unmarked) [Example 34, 5-(4-{1-cyclobutyl-1-[5-(1H-pyrazol-4-yl)-1,2,4-oxadiazol-3-yl]ethyl}phenyl)pyrimidin-2-amine]
360 | 3.2 | CC(C)(O)CNc1cnc(-c2nc(C(C)(c3ccc(-c4cnc(N)nc4)cc3)C3CCC3)no2)cn1 (centres unmarked) [Example 35, 1-{[5-(3-{1-[4-(2-aminopyrimidin-5-yl)phenyl]-1-cyclobutylethyl}-1,2,4-oxadiazol-5-yl)pyrazin-2-yl]amino}-2-methylpropan-2-ol]
170 | 3.2 | COCCNc1cnc(-c2nc(C(C)(c3ccc(-c4cnc(N)nc4)cc3)C3CCC3)no2)cn1 (centres unmarked) [Example 36, 5-{4-[1-cyclobutyl-1-(5-{5-[(2-methoxyethyl)amino]pyrazin-2-yl}-1,2,4-oxadiazol-3-yl)ethyl]phenyl}pyrimidin-2-amine]
250 | 7.4 | Cc1ccc(-c2nc(C(C)(C)c3ccc(-c4cnc(N)nc4)cc3)no2)cn1 [Example 37, 5-(4-{2-[5-(6-methylpyridin-3-yl)-1,2,4-oxadiazol-3-yl]propan-2-yl}phenyl)pyrimidin-2-amine]
97 | 2.2 | COCCNc1ccc(-c2nc(C(C)(c3ccc(-c4cnc(N)nc4)cc3)C3CC3)no2)cn1 (centres unmarked) [Example 38, 5-{4-[1-cyclopropyl-1-(5-{6-[(2-methoxyethyl)amino]pyridin-3-yl}-1,2,4-oxadiazol-3-yl)ethyl]phenyl}pyrimidin-2-amine]
110 | 2.1 | CC(C)(O)CNc1ccc(-c2nc(C(C)(c3ccc(-c4cnc(N)nc4)cc3)C3CC3)no2)cn1 (centres unmarked) [Example 39, 1-{[5-(3-{1-[4-(2-aminopyrimidin-5-yl)phenyl]-1-cyclopropylethyl}-1,2,4-oxadiazol-5-yl)pyridin-2-yl]amino}-2-methylpropan-2-ol]
100 | 2.3 | CC(O)CNc1ccc(-c2nc(C(C)(c3ccc(-c4cnc(N)nc4)cc3)C3CC3)no2)cn1 (centres unmarked) [Example 40, 1-{[5-(3-{1-[4-(2-aminopyrimidin-5-yl)phenyl]-1-cyclopropylethyl}-1,2,4-oxadiazol-5-yl)pyridin-2-yl]amino}propan-2-ol]
170 | 2.2 | CC(c1ccc(-c2cnc(N)nc2)cc1)(c1noc(-c2ccc(NCCS(C)(=O)=O)nc2)n1)C1CC1 (centres unmarked) [Example 41, 5-(4-{1-cyclopropyl-1-[5-(6-{[2-(methylsulfonyl)ethyl]amino}pyridin-3-yl)-1,2,4-oxadiazol-3-yl]ethyl}phenyl)pyrimidin-2-amine]
25 | 1.5 | COCCNc1cnc(-c2nc(C(C)(c3ccc(-c4cnc(N)nc4)cc3)C3CC3)no2)cn1 (centres unmarked) [Example 42, 5-{4-[1-cyclopropyl-1-(5-{5-[(2-methoxyethyl)amino]pyrazin-2-yl}-1,2,4-oxadiazol-3-yl)ethyl]phenyl}pyrimidin-2-amine]
30 | 2.5 | CC(c1ccc(-c2cnc(N)nc2)cc1)(c1noc(-c2cnn(C3COC3)c2)n1)C1CC1 (centres unmarked) [Example 43, 5-[4-(1-cyclopropyl-1-{5-[1-(oxetan-3-yl)-1H-pyrazol-4-yl]-1,2,4-oxadiazol-3-yl}ethyl)phenyl]pyrimidin-2-amine]
150 | 2.2 | CC(C)(O)CNc1cnc(-c2nc(C(C)(c3ccc(-c4cnc(N)nc4)cc3)C3CC3)no2)cn1 (centres unmarked) [Example 44, 1-{[5-(3-{1-[4-(2-aminopyrimidin-5-yl)phenyl]-1-cyclopropylethyl}-1,2,4-oxadiazol-5-yl)pyrazin-2-yl]amino}-2-methylpropan-2-ol]
140 | 3.1 | CC(C)(CO)Nc1cnc(-c2nc(C(C)(c3ccc(-c4cnc(N)nc4)cc3)C3CC3)no2)cn1 (centres unmarked) [Example 45, 2-{[5-(3-{1-[4-(2-aminopyrimidin-5-yl)phenyl]-1-cyclopropylethyl}-1,2,4-oxadiazol-5-yl)pyrazin-2-yl]amino}-2-methylpropan-1-ol]
190 | 6.8 | C[C@@](c1ccc(-c2cnc(N)nc2)cc1)(c1noc(-c2cn[nH]c2)n1)C1CC1 [Example 48, 5-(4-{(R)-1-cyclopropyl-1-[5-(1H-pyrazol-4-yl)-[1,2,4]oxadiazol-3-yl]-ethyl}-phenyl)-pyrimidin-2-ylamine]
680 | 19 | C[C@](c1ccc(-c2cnc(N)nc2)cc1)(c1noc(-c2cn[nH]c2)n1)C1CC1 [Example 49, 5-(4-{(1S)-1-cyclopropyl-1-[5-(1H-pyrazol-4-yl)-1,2,4-oxadiazol-3-yl]ethyl}phenyl)pyrimidin-2-amine]
95 | 1.3 | CC(C)(O)CNc1cnc(-c2nc([C@@](C)(c3ccc(-c4cnc(N)nc4)cc3)C3CC3)no2)cn1 [Example 50, 1-{[5-(3-{(1R)-1-[4-(2-aminopyrimidin-5-yl)phenyl]-1-cyclopropylethyl}-1,2,4-oxadiazol-5-yl)pyrazin-2-yl]amino}-2-methylpropan-2-ol]
140 | 3.9 | CC(C)(O)CNc1cnc(-c2nc([C@](C)(c3ccc(-c4cnc(N)nc4)cc3)C3CC3)no2)cn1 [Example 51, 1-{[5-(3-{(1S)-1-[4-(2-aminopyrimidin-5-yl)phenyl]-1-cyclopropylethyl}-1,2,4-oxadiazol-5-yl)pyrazin-2-yl]amino}-2-methylpropan-2-ol]
26 | 2.4 | COCCn1cc(-c2nc([C@@](C)(c3ccc(-c4cnc(N)nc4)cc3)C3CC3)no2)cn1 [Example 52, 5-{4-[(1R)-1-cyclopropyl-1-{5-[1-(2-methoxyethyl)-1H-pyrazol-4-yl]-1,2,4-oxadiazol-3-yl}ethyl]phenyl}pyrimidin-2-amine]
450 | 27 | COCCn1cc(-c2nc([C@](C)(c3ccc(-c4cnc(N)nc4)cc3)C3CC3)no2)cn1 [Example 53, 5-{4-[(1S)-1-cyclopropyl-1-{5-[1-(2-methoxyethyl)-1H-pyrazol-4-yl]-1,2,4-oxadiazol-3-yl}ethyl]phenyl}pyrimidin-2-amine]
27 | 2.6 | C[C@@](c1ccc(-c2cnc(N)nc2)cc1)(c1noc(-c2cnn(C3COC3)c2)n1)C1CC1 [Example 54, 5-{4-[(1R)-1-cyclopropyl-1-{5-[1-(oxetan-3-yl)-1H-pyrazol-4-yl]-1,2,4-oxadiazol-3-yl}ethyl]phenyl}pyrimidin-2-amine]
